Reference: patent publication US20060217351A1, “Method for treating cardiovascular diseases” (priority 2003, published 2006)

Legend:
platelet aggregation [1] = assay: anti-platelet aggregation ability of active metabolite enantiomers; conditions: enantiomers of active metabolite II
Excerpt: The active metabolite is a mixture of four enantiomers each of which has shown dose dependent anti-platelet aggregation ability, and thus useful for the practice of the invention.

cerebral infarct = assay: embolic cerebral infarction model; format: in vivo; conditions: rats
platelet aggregation [2] = assay: comparative study of inhibition of platelet aggregation; format: in vivo; conditions: for inhibition of platelet aggregation: in thirty (30) minutes
thrombus formation = conditions: rats, p.o., cited from earlier work; for ED50, prevention of thrombus formation: arteriovenous shunt model
[3] = storage stability of crystals; format: physicochemical; conditions: crystal form comparison

Compound	effect on total area of cerebral infarct (cerebral infarct)	inhibition of platelet aggregation (platelet aggregation [2])	ED50, prevention of thrombus formation (thrombus formation) [mg/kg]	storage stability [3]	also measured
O=C(O)/C=C1/CN(C(C(=O)C2CC2)c2ccccc2F)CCC1S (stereo not drawn) [RS enantiomer]	–	–	–	–	anti-platelet aggregation ability (platelet aggregation [1]): most potent
COC(=O)[C@H](c1ccccc1Cl)N1CCc2sccc2C1 [clopidogrel bisulfate]	similar, yet milder effect on cerebral infarcts	–	–	–	potency compared to compound of formula I (times less potent) (cerebral infarct): about 10 times
COC(=O)[C@H](c1ccccc1Cl)N1CCc2sccc2C1 [clopidogrel, reference compound]	–	minimal aggregation	7.0	–	–
CC(=O)Oc1cc2c(s1)CCN(C(C(=O)C1CC1)c1ccccc1F)C2 (stereo not drawn) [compound of formula I, 2-Acetoxy-5-(α-cyclopropylcarbonyl-2-fluorobenzyl)-4,5,6,7-tetrahydrothieno[3,2-c]pyridine]	reduced the total area of cerebral infarct in rats, in a dose related manner	greater than 50%	0.65	–	potency compared to clopidogrel (times higher) (platelet aggregation [2]; in vivo, versus clopidogrel): approximately 10 times; effect on thrombus formation (thrombus formation; 0.12-3 mg/kg): prevented thrombus formation in a dose dependent manner
CC(=O)Oc1cc2c(s1)CCN(C(C(=O)C1CC1)c1ccccc1F)C2.Cl (stereo not drawn) [crystal B1, 2-Acetoxy-5-(α-cyclopropylcarbonyl-2-fluorobenzyl)-4,5,6,7-tetrahydrothieno[3,2-c]pyridine hydrochloride (crystal B1)]	–	–	–	more excellent storage stability than crystal A	–
CC(=O)Oc1cc2c(s1)CCN(C(C(=O)C1CC1)c1ccccc1F)C2.Cl (stereo not drawn) [crystal B2, 2-Acetoxy-5-(α-cyclopropylcarbonyl-2-fluorobenzyl)-4,5,6,7-tetrahydrothieno[3,2-c]pyridine hydrochloride (crystal B2)]	–	–	–	more excellent storage stability than crystal B1	–
